{"source": "patent US10961238B2", "about": "“Modulators of hedgehog (Hh) signaling pathway” (E-THERAPEUTICS PLC, priority 2016, dated 2021)", "tested_on": "C3H10T1/2 cells", "experiment": "C3H assay: differentiation of C3H10T1/2 cells by mSHH, measurement of alkaline phosphatase", "assay_type": "cell-based, mouse", "conditions": "Mus musculus, C3H 10T1/2; C3H10T1/2 cells stimulated with mSHH for 72 hours; alkaline phosphatase activity; read-out: IC50 Ranges"}
{"smiles": "CC(C)(C)OC(=O)N1CC(S(=O)(=O)N2CCC(c3cnn4ccncc34)CC2)C1", "note": "[Compound 130, tert-butyl 3-(4-pyrazolo[1,5-a]pyrazin-3-ylpiperidin-1-yl)sulfonylaze-tidine-1-carboxylate]", "values": [{"measurement": "IC50", "value": "1000 to 10000", "unit": "nM"}]}
{"smiles": "CC(C)(C)OC(=O)N1CCC(S(=O)(=O)N2CCC(c3coc4cccnc34)CC2)CC1", "note": "[Compound 132, tert-butyl 4-(4-furo[3,2-b]pyridin-3-ylpiperidin-1-yl)sulfonylpiper-idine-1-carboxylate]", "values": [{"measurement": "IC50", "value": "100 to 1000", "unit": "nM"}]}
{"smiles": "CC(C)(C)OC(=O)N1CCC(S(=O)(=O)N2CCC(c3c[nH]c4ccccc34)CC2)CC1", "note": "[Compound 133, tert-butyl 4-[4-(1H-indol-3-yl)piperidin-1-yl]sulfonylpiper-idine-1-carboxylate]", "values": [{"measurement": "IC50", "value": "100 to 1000", "unit": "nM"}]}
{"smiles": "Cc1noc(C)c1CCN1CC(S(=O)(=O)N2CCC(c3coc4cccnc34)CC2)C1", "note": "[Compound 134, 3-[1-[1-[2-(3,5-dimethyl-1,2-oxazol-4-yl)ethyl]azetidin-3-yl]sulfonylpiper-idin-4-yl]furo [3,2-b]pyridine]", "values": [{"measurement": "IC50", "value": "100 to 1000", "unit": "nM"}]}
{"smiles": "Cc1noc(C)c1NC(=O)N1CC(S(=O)(=O)N2CCC(c3coc4cccnc34)CC2)C1", "note": "[Compound 135, N-(3,5-dimethyl-1,2-oxazol-4-yl)-3-(4-furo[3,2-b]pyridin-3-ylpiperidin-1-yl)sulfonylaze-tidine-carboxamide]", "values": [{"measurement": "IC50", "value": "< 10", "unit": "nM"}]}
{"smiles": "O=C(OC1CCOCC1)N1CC(S(=O)(=O)N2CCC(c3coc4cccnc34)CC2)C1", "note": "[Compound 136, oxan-4-yl 3-(4-furo[3,2-b]pyridin-3-ylpiperidin-1-yl)sulfonylaze-tidine-1-carboxylate]", "values": [{"measurement": "IC50", "value": "10 to 100", "unit": "nM"}]}
{"smiles": "O=C(N1CCOCC1)N1CC(S(=O)(=O)N2CCC(c3coc4cccnc34)CC2)C1", "note": "[Compound 137, [3-(4-furo [3,2-b]pyridin-3-ylpiperidin-1-yl)sulfonylaze-tidin-1-yl]-morpholin-4-ylmethanone]", "values": [{"measurement": "IC50", "value": "100 to 1000", "unit": "nM"}]}
{"smiles": "Cc1noc(C)c1CC(=O)N1CC(S(=O)(=O)N2CCC(c3coc4cccnc34)CC2)C1", "note": "[Compound 138, N-2-(3,5-Dimethylisoxazol-4-yl)-acetyl 3-[(4-furo[3,2-b]pyridin-3-yl-1-piperidyl)sulfonyl]azetidine]", "values": [{"measurement": "IC50", "value": "< 10", "unit": "nM"}]}
{"smiles": "O=C(NC1(C(F)(F)F)CC1)N1CC(S(=O)(=O)N2CCC(c3coc4cccnc34)CC2)C1", "note": "[Compound 139, 3-(4-furo[3,2-b]pyridin-3-ylpiperidin-1-yl)sulfonyl-N-[1-(trifluoromethyl)cyclopropyl] azetidine-1-carboxamide]", "values": [{"measurement": "IC50", "value": "10 to 100", "unit": "nM"}]}
{"smiles": "CC(C)(C)COC(=O)N1CC(S(=O)(=O)N2CCC(c3coc4cccnc34)CC2)C1", "note": "[Compound 140, 2,2-dimethylpropyl 3-(4-furo[3,2-b]pyridin-3-ylpiperidin-1-yl)sulfonylaze-tidine-1-carboxylate]", "values": [{"measurement": "IC50", "value": "10 to 100", "unit": "nM"}]}
{"smiles": "O=C(OC1CCCCC1)N1CC(S(=O)(=O)N2CCC(c3coc4cccnc34)CC2)C1", "note": "[Compound 141, Cyclohexyl 3-[(4-furo[3,2-b]pyridin-3-yl-1-piperidyl)sulfonyl]azetidine-1-carboxylate]", "values": [{"measurement": "IC50", "value": "10 to 100", "unit": "nM"}]}
{"smiles": "COC(=O)c1cnc(N2CC(S(=O)(=O)N3CCC(c4c[nH]c5ncccc45)CC3)C2)o1", "note": "[Compound 142, methyl 2-[3-[4-(1H-pyrrolo [2,3-b]pyridin-3-yl)piperidin-1-yl]sulfonylaze-tidin-1-yl]-1,3-oxazole-5-carboxylate]", "values": [{"measurement": "IC50", "value": "100 to 1000", "unit": "nM"}]}
{"smiles": "CN(C)CC(C)(C)OC(=O)N1CC(S(=O)(=O)N2CCC(c3ccncc3)CC2)C1", "note": "[Compound 144, [1-(dimethylamino)-2-methylpropan-2-yl]3-(4-pyridin-4-ylpiperidin-1-yl)sulfonylaze-tidine-1-carboxylate]", "values": [{"measurement": "IC50", "value": "100 to 1000", "unit": "nM"}]}
{"smiles": "CCN(CC)CC(C)(C)CN1CC(S(=O)(=O)N2CCC(c3c[nH]c4ncccc34)CC2)C1", "note": "[Compound 145, N,N-diethyl-2,2-dimethyl-3-[3-[4-(1H-pyrrolo[2,3-b]pyridin-3-yl)piperidin-1-yl]sulfonylaze-tidin-1-yl]propan-1-amine]", "values": [{"measurement": "IC50", "value": "1000 to 10000", "unit": "nM"}]}
{"smiles": "CC(C)(CN1CCOCC1)CN1CC(S(=O)(=O)N2CCC(c3c[nH]c4ncccc34)CC2)C1", "note": "[Compound 146]", "values": [{"measurement": "IC50", "value": "1000 to 10000", "unit": "nM"}]}
